Measured values reported in patent publication US20260076959A1, “COMBINATION PRODUCT, SALT, AND USE THEREOF IN TREATING NEURODEGENERATIVE DISEASES OR DISORDERS” (SHANGHAI HENLIUS BIOTECH, INC., priority 2023, published 2026).
Structures can show the parent of a compound that is named as a salt.

Assays:
ALS = conditions: in vivo; cited from earlier work
[1] = system: MPTP-induced Parkinson's disease mouse model; experiment: MPTP-induced Parkinson's disease mouse model (grip strength, rotarod, TH immunohistochemistry); assay type: in vivo, C57BL/6 mice; conditions: for reduction in TH-positive cells in the substantia nigra region: P<0.0001
Description: Sixty male C57BL/6 mice were selected and randomly divided into 5 groups (12 mice/group), namely a sham surgery group (normal control), a model group (model control), an L-DOPA group (positive drug control, 40 mg/kg), a low-dose YT salt treatment group (167.5 mg/kg), and a high-dose YT salt treatment group (248 mg/kg). The mice were intraperitoneally injected with MPTP at a dose of 30 mg/kg for 5 consecutive days for modeling. The YT salt was intragastrically administered twice daily (with an interval of 7-8 h between two administrations) for 13 consecutive days. L-DOPA was administered twice daily (with an interval of 7-8 h between two administrations) for 8 consecutive days. The amelioration effect of the YT salt on the motor function of the MPTP-induced Parkinson's disease mice was evaluated by behavioral indicators such as a grip strength test and a rotarod test. Histopathological examination was performed on the animals to evaluate the protective effect of the YT salt on dopaminergic neurons in the MPTP-induced Parkinson's disease mice.

[2] = system: SOD1G93A mutant ALS model mice; experiment: Onset of disease, severe conditions and survival in SOD1G93A ALS mouse model; assay type: in vivo
Description: The therapeutic effect of the YT salt on the survival status of ALS animals was evaluated in SOD1^G93A transgenic mice (B6SJL-Tg (SOD1*G93A) 1/cyagen). Sixteen female and fourteen male B6SJL-Tg(SOD1*G93A) 1/cyagen mice were selected and randomly divided into 2 groups (7 males+8 females/group) according to sex and body weight, namely a model group (control) and a YT salt group (treatment group). The YT salt was intragastrically administered at a dose of 496 mg/kg once daily. The administration began on day 66 of mouse age. Body weight changes were monitored, animal status and symptom severity were evaluated, and individual survival periods were recorded. Statistics on the severity of animal symptoms included the time to the first onset of disease and the time to the first observation of severe conditions in the animals. […] In this study, “severe condition” was defined as a state in which the animal was completely paralyzed and unable to move freely, but still alive; if the animal died directly without going through a “paralysis” stage after the onset of disease, the death was considered the occurrence of a severe condition. The survival period was statistically defined as the survival time of the animal at the endpoint of the test (day 130). The hazard ratio was calculated using the Log-rank test method.

CD4-positive T cells = experiment: Proliferation of CD4-positive T cells from anti-CD3/CD28-stimulated PBMCs (CellTrace, flow cytometry); assay type: cell-based, human; conditions: 72 h; for proliferation of CD4-positive T cells compared to control group (DMSO): 100 μM (Y+T: 100 μM+100 μM)
Source text: (§1) It has been reported that in ALS, Th cells are described as major players in inflammation and disease progression. […] Similarly, CD8 T cell infiltration was also observed in the spinal cord and brain of ALS patients. (Elise Liu, et al., Neuroinflammation in Amyotrophic Lateral Sclerosis and Frontotemporal Dementia and the Interest of Induced Pluripotent Stem Cells to Study Immune Cells Interactions With Neurons, Front Mol Neurosci. 2021 Dec. 14; 14:767041. doi: 10.3389/fnmol.2021.767041.) To observe the inhibitory effects of the compounds, the compound combination, or the salt of the present disclosure on immune cell infiltration or proliferation, their effects in inhibiting the proliferation of CD4-positive and CD8-positive T cells were further analyzed. First, a certain amount of human peripheral blood mononuclear cells (PBMCs) were incubated with 5 μM CellTrace cell proliferation assay reagent in an incubator at 37° C. with 5% CO2 in the dark for 20 min. Then, 1.5×10^5 CellTrace-stained PBMCs were seeded in a 96-well U-bottom plate and treated with Anti-CD3/CD28 antibody-coupled magnetic beads at a ratio of 1:1 (cell count:magnetic bead count) to induce differentiation into T cells. Subsequently, various compounds at corresponding concentrations (compound Y: 100 μM; compound T: 100 μM; compound combination Y+T: 100 µM compound Y+100 μM compound T; YT salt: 100 μM; control group: […] (100 μM)) were co-incubated with the above-treated cells in the incubator at 37° C. with 5% CO2 for 72 h, followed by analysis by a flow cytometer. Specifically, the test cells were first treated with a Live/dead dye (633 nm, 1:1000 dilution) at 4° C. for 30 min to distinguish dead cells from live cells. […] After appropriate washing, the above-stained cells were analyzed by a flow cytometer at different wavelengths. […] Proliferation of CD4-positive and CD8-positive T cells was determined by the fluorescence of CellTrace dye.

CD8-positive T cells = experiment: Proliferation of CD8-positive T cells from anti-CD3/CD28-stimulated PBMCs (CellTrace, flow cytometry); assay type: cell-based, human; conditions: 72 h; for proliferation of CD8-positive T cells compared to control group (DMSO): 100 μM (Y+T: 100 μM+100 μM)
Source text: as §1

SH-sy5y cells = experiment: Cell viability of hydrogen peroxide-induced SH-sy5y cells (CellTiter-Glo luminescence); assay type: cell-based
Description: Neuroblastoma SH-sy5y cells (purchased from the Cell Bank of the Chinese Academy of Sciences) were cultured in a complete medium (DMEM+10% FBS+1% PS) in a cell incubator at 37° C. with 5% CO2. The experiment was divided into 11 groups in total: • Group 1 (control): SH-sy5y cells • Group 2 (model): SH-sy5y cells+hydrogen peroxide • Group 3: SH-sy5y cells+hydrogen peroxide+compound Y (100 μM) • Group 4: SH-sy5y cells+hydrogen peroxide+compound T (100 μM) • Group 5: SH-sy5y cells+hydrogen peroxide+compound B (100 μM) • Group 6: SH-sy5y cells+hydrogen peroxide+compound N (100 μM) • Group 7: SH-sy5y cells+hydrogen peroxide+compound combination Y+T (100 μM+100 μM) • Group 8: SH-sy5y cells+hydrogen peroxide+compound combination B+N (100 μM+100 μM) • Group 9: SH-sy5y cells+hydrogen peroxide+compound combination PB+T (500 μM+200 μM) • Group 10: SH-sy5y cells+hydrogen peroxide+YT salt (100 μM) • Group 11: SH-sy5y cells+DMSO
Neuroblastoma SH-sy5y cells were plated at 1×10^4 cells/well in a complete medium (DMEM+10% FBS+1% PS) and cultured in a cell incubator at 37° C. with 5% CO2 for 24 h, followed by the addition of the corresponding compounds. After 24 h of incubation, hydrogen peroxide was added to stimulate the cells for 1 h, with the final concentration of hydrogen peroxide being 350 µM. Subsequently, […] CellTiter-Glo® (CTG) reagent was added, and the mixture was shaken for 2 min. Then, the luminescence signal values were measured, which could characterize the cell viability. […] Pharmacology/toxicologyNDAreviewandevaluation, Application number: 2166600Orig1s000, Food and Drug Administration. doi: pink.pharmaintelligence.informa.com/-/media/supporting-documents/pink-sheet/2022/11/relyvrio_nonclinical.pdf?rev=d27109bf35c040d4a78f73144d132917&hash=414BB5B4473A21ECE0231375EB1C0341).

[3] = system: 6-OHDA-induced Parkinson's disease rats; experiment: 6-OHDA-induced Parkinson's disease rat model (grid walking test); assay type: in vivo, SD rats; conditions: 248 mg/kg intragastrically once daily, 6 weeks; P<0.05 vs model
Description: Forty-eight male SD rats were selected and divided into 4 groups (12 rats/group), namely a sham surgery group (normal control), a model group (model control), an istradefylline group (istradefylline, as a positive drug control, 10 mg/kg), and a YT salt treatment group (248 mg/kg). The Parkinson's disease model was established by injecting […] of 6-OHDA into the right intracranial medial forebrain bundle (MFB) of rats. After modeling, istradefylline and the YT salt were administered intragastrically once daily for 6 consecutive weeks, and a grid walking test was performed at the end of the 6-week administration period to evaluate the disease progression in the rats.

[4] = 496 mg/kg intragastrically once daily

SMILES: CC1=NN(c2ccccc2)C(=O)C1 [Evadarone]
- revised ALS functional rating scale (ALSFRS-R) score (ALS): improves

SMILES: N[C@@H](Cc1ccc(O)c(O)c1)C(=O)O [L-DOPA, reference compound]
- MPTP-induced decrease in animal grip strength ([1]; L-DOPA 40 mg/kg twice daily, 8 days, P<0.001 vs model): significantly ameliorate
- reduction in TH-positive cells in the substantia nigra region ([1]; L-DOPA 40 mg/kg twice daily): significant inhibition

SMILES: COc1cc2cc3[n+](cc2cc1OC)CCc1cc2c(cc1-3)OCO2 [YT salt]
- median onset time [2, 4]: 109 days
- median time to severe condition occurrence [2, 4]: 117 days
- onset time (earliest onset in group) [2, 4]: > 90 days of mouse age
- time of first onset vs model group (Log-rank) ([2]; 496 mg/kg intragastrically once daily from day 66 of age, P=0.0802): no statistical difference
- hazard ratio for disease onset ([2]; 496 mg/kg intragastrically once daily, Log-rank): 0.5716
- survival period vs model group ([2]; 496 mg/kg intragastrically once daily, P<0.01): significantly superior
- incidence of severe conditions vs model group ([2]; 496 mg/kg intragastrically once daily, P<0.05): significantly lower
- median onset time longer than in the model group ([2]; 496 mg/kg intragastrically once daily, model group 102 days): 7 days
- death hazard ratio ([2]; 496 mg/kg, Log-rank): 0.3212
- hazard ratio for severe conditions ([2]; 496 mg/kg, Log-rank): 0.45
- endpoint survival rate ([2]; 496 mg/kg, endpoint day 130): 53.333%
- median survival period ([2]; 496 mg/kg, endpoint day 130): the number of dead individuals had not exceeded half by the endpoint of the test
- endpoint severe condition rate ([2]; 496 mg/kg, endpoint of the test day 130): 66.667%
- hazard ratio for disease onset, times lower than model group ([2]; 496 mg/kg, model group 1.749): about 3 times
- hazard ratio for severe conditions, times lower than model group ([2]; 496 mg/kg, model group 2.222): about 5 times
- death hazard ratio, times lower than model group ([2]; 496 mg/kg, model group 3.113): ~10 times
- median time to severe condition occurrence longer than in the model control group ([2]; 496 mg/kg, model group 109 days): about 8 days
- proliferation of CD4-positive T cells compared to control group (DMSO) (CD4-positive T cells): significantly inhibited
- inhibitory effect on proliferation of CD4-positive T cells compared to compound T and compound U (UDCA) (CD4-positive T cells; 100 μM): significantly superior
- apoptosis of dopaminergic neurons in the substantia nigra region and striatal region ([1]; YT salt 167.5 mg/kg twice daily): significantly inhibit
- MPTP-induced decrease in animal grip strength ([1]; YT salt high dose 248 mg/kg intragastrically twice daily, 13 days, P<0.01 vs model): significantly ameliorate
- reduction in TH-positive cells in the substantia nigra region ([1]; YT salt high dose 248 mg/kg twice daily): significant inhibition
- loss of TH-positive neurons (TH immunohistochemical staining in the striatum) ([1]; YT salt high dose 248 mg/kg twice daily, P<0.01): significant inhibition
- MPTP-induced reduction in time on the rod (rotarod test) ([1]; YT salt high dose 248 mg/kg twice daily, P<0.05 vs model): significant amelioration effect
- reduction in TH-positive cells in the substantia nigra region ([1]; YT salt low dose 167.5 mg/kg twice daily): significant inhibition
- proliferation of CD8-positive T cells compared to control group (DMSO) (CD8-positive T cells): significantly inhibited
- inhibitory effect on proliferation of CD8-positive T cells compared to compound T and compound U (UDCA) (CD8-positive T cells; 100 μM): significantly superior
- effects in improving cell viability compared to compound T, compound B, combination B+N and combination PB+T (SH-sy5y cells; Y+T 100 μM+100 μM, YT salt 100 μM, hydrogen peroxide-induced): significantly superior effects in improving cell viability
- foot fault rate in grid walking test [3]: significant reduction
- number of foot faults in grid walking test [3]: significant reduction

SMILES: COc1cc2cc3[n+](cc2cc1OC)CCc1cc2c(cc1-3)OCO2.[Cl-] [compound Y]
- proliferation of CD4-positive T cells compared to control group (DMSO) (CD4-positive T cells): significantly inhibited
- proliferation of CD8-positive T cells compared to control group (DMSO) (CD8-positive T cells): significantly inhibited
- effect in improving cell viability compared to compound B monotherapy (SH-sy5y cells; 100 μM each, hydrogen peroxide-induced): superior
- effect in improving cell viability compared to the model (SH-sy5y cells; 100 μM, 24 h incubation, then hydrogen peroxide 1 h, P<0.0001 vs model): excellent effect in improving cell viability
